The record followed here is publication PMC12664123, “Exploring Nirmatrelvir Derivatives Through P2 Substituent Modifications and Warhead Innovations Targeting the Main Protease of SARS‐CoV‐2” (Archiv Der Pharmazie, 2025).

pKi: −log10 of the molar value.

Data set [1] in a line: Metabolic stability against liver microsomes, loss of parent compound by HPLC-UV. The settings on record: 37°C; for remaining parent compound after 480 min: rat liver microsomes 0.2 mg/mL, NADPH, 100 µM compound, 480 min (8 h); for metabolic stability toward liver microsomes (in words): rat liver microsomes, up to 480 min. (Liver microsomes are vesicles of endoplasmic reticulum, rich in cytochrome P450 enzymes.)

A further data set concerns the target WT SARS-CoV-2 Mpro (Severe acute respiratory syndrome coronavirus 2, UniProt P0DTD1). As to the kind of experiment: Jump-dilution assay for reversibility of inhibition. Format: biochemical. The following applies: for mechanism of inhibition (reversibility): incubated 30 min at 100 nM M^pro and 200 nM inhibitor, 10-fold dilution, followed 30 min; for residual enzyme activity after jump dilution: 10-fold dilution to 10 nM M^pro, 20 nM inhibitor.

The target of data set [2] is T1, SARS-CoV-2 M^pro (Severe acute respiratory syndrome coronavirus 2, UniProt P0DTD1). As to the kind of experiment: Determination of the inhibition constants (Ki) for SARS-CoV-2 Mpro, Morrison equation, QS1 fluorogenic substrate. In kind it is biochemical. The settings on record: for pKi / Biological Activity (pKi): M^pro 25 nM, QS1 20 µM; for pKi: 30 min preincubation at 37°C, pH 7.2; for Biological Activity (pKi): supplement table, 30 min preincubation at 37 °C; for fold more potent than compound 22 / ΔpK i relative to oxime analog 22: warhead exchange, vs compound 22.

The target in data set [3] is T1, SARS-CoV-2 M^pro. As to the kind of experiment: Determination of Kinact/KI for time-dependent (irreversible) inhibitors, progress curves. Format: biochemical. The settings on record: for kinact/KI: read-out: Kinact/KI (supplement table).

As a reminder, the pKi is −log10 of the Ki, conventionally taken in molar units. High values mean a small Ki, low ones a large Ki. On to `CO[C@@H]1C[C@@H](C(=O)N[C@H](C=NO)C[C@@H]2CCNC2=O)N(C(=O)[C@@H](NC(=O)C(F)(F)F)C(C)(C)C)C1` [Compound 22, (2S,4R)−1‐{(S)−3,3‐Dimethyl‐2‐(2,2,2‐Trifluoroacetamido)butanoyl}‐N‐[(S)−1‐(Hydroxyimino)−3‐[(S)−2‐Oxopyrrolidin‐3‐yl]Propan‐2‐yl]−4‐Methoxypyrrolidine‐2‐Carboxamide], for which the “remaining parent compound after 480 min” value in data set [1] is “ca. 60%”. For the same compound, on WT SARS-CoV-2 Mpro, the “mechanism of inhibition (reversibility)” value is listed as “reversible”. Besides, at SARS-CoV-2 M^pro [2], the negative logarithm of the Ki (pKi) was 6.80 and the “Biological Activity (pKi)” value was 6.8 ± 0.01.

As for `CC(C)(C)[C@H](NC(=O)C(F)(F)F)C(=O)N1C[C@H](c2ccccc2)C[C@H]1C(=O)N[C@H](C=NO)C[C@@H]1CCNC1=O` [Compound 23, (2S,4S)−1‐{(S)−3,3‐Dimethyl‐2‐(2,2,2‐Trifluoroacetamido)Butanoyl}‐N‐[(S)−1‐(Hydroxyimino)−3‐[(S)−2‐Oxopyrrolidin‐3‐yl]Propan‐2‐yl]−4‐Phenylpyrrolidine‐2‐Carboxamide], at SARS-CoV-2 M^pro [2], the negative-log Ki (pKi) is 7.30 and the “Biological Activity (pKi)” value amounted to 7.3 ± 0.01.

Turning to `C=CCO[C@@H]1C[C@@H](C(=O)N[C@H](C=NO)C[C@@H]2CCNC2=O)N(C(=O)[C@@H](NC(=O)C(F)(F)F)C(C)(C)C)C1` [Compound 24, (2S,4R)−4‐(Allyloxy)−1‐{(S)−3,3‐Dimethyl‐2‐(2,2,2‐Trifluoroacetamido)Butanoyl}‐N‐[(S)−1‐(Hydroxyimino)−3‐[(S)−2‐Oxopyrrolidin‐3‐yl]Propan‐2‐yl]Pyrrolidine‐2‐Carboxamide], at SARS-CoV-2 M^pro [2], the negative logarithm of the Ki (pKi) was 7.30 and the “Biological Activity (pKi)” value is recorded as 7.3 ± 0.08.

Turning to `C#CCO[C@@H]1C[C@@H](C(=O)N[C@H](C=NO)C[C@@H]2CCNC2=O)N(C(=O)[C@@H](NC(=O)C(F)(F)F)C(C)(C)C)C1` [Compound 25, (2S,4R)−1‐{(S)−3,3‐Dimethyl‐2‐(2,2,2‐Trifluoroacetamido)Butanoyl}‐N‐[(S)−1‐(Hydroxyimino)−3‐[(S)−2‐Oxopyrrolidin‐3‐yl]Propan‐2‐yl]−4‐(Prop‐2‐yn‐1‐Yloxy)Pyrrolidine‐2‐Carboxamide], on SARS-CoV-2 M^pro [2], the negative logarithm of the Ki (pKi) was 7.50 and the “Biological Activity (pKi)” value worked out at 7.5 ± 0.04.

In the case of `CCO[C@@H]1C[C@@H](C(=O)N[C@H](C=NO)C[C@@H]2CCNC2=O)N(C(=O)[C@@H](NC(=O)C(F)(F)F)C(C)(C)C)C1` [Compound 26, (2S,4R)−1‐{(S)−3,3‐Dimethyl‐2‐(2,2,2‐Trifluoroacetamido)Butanoyl}−4‐Ethoxy‐N‐[(S)−1‐(Hydroxyimino)−3‐[(S)−2‐Oxopyrrolidin‐3‐yl]Propan‐2‐yl]Pyrrolidine‐2‐Carboxamide], on SARS-CoV-2 M^pro [2], the negative-log Ki (pKi) is 7.00 and the “Biological Activity (pKi)” value came to 7.0 ± 0.02.

Regarding `CC(C)(C)[C@H](NC(=O)C(F)(F)F)C(=O)N1C[C@H](C2CCCCC2)C[C@H]1C(=O)N[C@H](C=NO)C[C@@H]1CCNC1=O` [Compound 27, (2S,4S)−4‐Cyclohexyl‐1‐{(S)−3,3‐Dimethyl‐2‐(2,2,2‐Trifluoroacetamido)Butanoyl}‐N‐[(S)−1‐(Hydroxyimino)−3‐[(S)−2‐Oxopyrrolidin‐3‐yl]Propan‐2‐yl]Pyrrolidine‐2‐Carboxamide], at SARS-CoV-2 M^pro [2], the negative logarithm of the Ki (pKi) was 7.00 and the “Biological Activity (pKi)” value is reported as 7.0 ± 0.02.

Turning to `CC(=O)N[C@@H]1C[C@@H](C(=O)N[C@H](C=NO)C[C@@H]2CCNC2=O)N(C(=O)[C@@H](NC(=O)C(F)(F)F)C(C)(C)C)C1` [Compound 28, (2S,4R)−4‐Acetamido‐1‐{(S)−3,3‐Dimethyl‐2‐(2,2,2‐Trifluoroacetamido)Butanoyl}‐N‐[(S)−1‐(Hydroxyimino)−3‐[(S)−2‐Oxopyrrolidin‐3‐yl]Propan‐2‐yl]Pyrrolidine‐2‐Carboxamide], on SARS-CoV-2 M^pro [2], the negative logarithm of the Ki (pKi) was 7.00 and the “Biological Activity (pKi)” value is reported as 7.0 ± 0.03.

As to `CC(C)(C)[C@H](NC(=O)C(F)(F)F)C(=O)N1C[C@H](OCc2ccccc2)C[C@H]1C(=O)N[C@H](C=NO)C[C@@H]1CCNC1=O` [Compound 29, (2S,4R)−4‐(Benzyloxy)−1‐{(S)−3,3‐Dimethyl‐2‐(2,2,2‐Trifluoroacetamido)Butanoyl}‐N‐[(S)−1‐(Hydroxyimino)−3‐[(S)−2‐Oxopyrrolidin‐3‐yl]Propan‐2‐yl]Pyrrolidine‐2‐Carboxamide], on SARS-CoV-2 M^pro [2], the negative logarithm of the Ki (pKi) was 6.70 and the “Biological Activity (pKi)” value is listed as 6.7 ± 0.02.

`CO[C@@H]1C[C@@H](C(=O)N[C@H](/C=C(\F)S(=O)(=O)c2ccccc2)C[C@@H]2CCNC2=O)N(C(=O)[C@@H](NC(=O)C(F)(F)F)C(C)(C)C)C1` [Compound 30, (2S,4R)−1‐{(S)−3,3‐Dimethyl‐2‐(2,2,2‐Trifluoroacetamido)Butanoyl}‐N‐[(S,E)−4‐Fluoro‐1‐((S)−2‐Oxopyrrolidin‐3‐yl)−4‐(Phenylsulfonyl)but‐3‐en‐2‐yl]−4‐Methoxypyrrolidine‐2‐Carboxamide]: the “remaining parent compound after 480 min” value in data set [1] was roughly 100%. Also, on WT SARS-CoV-2 Mpro, the “mechanism of inhibition (reversibility)” value was “reversible”. Also, on SARS-CoV-2 M^pro [2], the negative-log Ki (pKi) is 8.10, the “Biological Activity (pKi)” value is 8.1 ± 0.01, the “fold more potent than compound 22” value was roughly 20 fold and the “ΔpK i relative to oxime analog 22” value is listed as 1.3.

Turning to `CO[C@@H]1C[C@@H](C(=O)N[C@H](C#N)C[C@@H]2CCNC2=O)N(C(=O)[C@@H](NC(=O)C(F)(F)F)C(C)(C)C)C1` [Compound 31, (2S,4R)‐N‐[(S)−1‐Cyano‐2‐[(S)−2‐Oxopyrrolidin‐3‐yl]Ethyl]−1‐{(S)−3,3‐Dimethyl‐2‐(2,2,2‐Trifluoroacetamido)Butanoyl}−4‐Methoxypyrrolidine‐2‐Carboxamide], the “remaining parent compound after 480 min” value in data set [1] is reported as roughly 100%. Besides, at SARS-CoV-2 M^pro [2], the pKi is 8.80, the “Biological Activity (pKi)” value worked out at 8.8 ± 0.01, the “fold more potent than compound 22” value was 100 fold and the “ΔpK i relative to oxime analog 22” value is recorded as 2.0.

Consider `CO[C@@H]1C[C@@H](C(=O)N[C@H](/C=C/S(=O)(=O)c2ccccc2)C[C@@H]2CCNC2=O)N(C(=O)[C@@H](NC(=O)C(F)(F)F)C(C)(C)C)C1` [Compound 32, (2S,4R)−1‐{(S)−3,3‐Dimethyl‐2‐(2,2,2‐Trifluoroacetamido)butanoyl}−4‐Methoxy‐N‐[(S,E)−1‐((S)−2‐Oxopyrrolidin‐3‐yl)−4‐(Phenylsulfonyl)but‐3‐en‐2‐yl]Pyrrolidine‐2‐Carboxamide], for which the kinact/KI at SARS-CoV-2 M^pro [3] worked out at 4400 M⁻¹ s⁻¹. In addition, on WT SARS-CoV-2 Mpro, the “residual enzyme activity after jump dilution” value is recorded as “very low residual enzyme activity” and the “mechanism of inhibition (reversibility)” value is listed as “irreversible”.

Take `COc1ccc(C(=O)ON=C[C@H](C[C@@H]2CCNC2=O)NC(=O)[C@@H]2C[C@@H](OC)CN2C(=O)[C@@H](NC(=O)C(F)(F)F)C(C)(C)C)cc1` [Compound 33, (2S,4R)−1‐{(S)−3,3‐Dimethyl‐2‐(2,2,2‐Trifluoroacetamido)Butanoyl}−4‐Methoxy‐N‐[(S)−1‐[((4‐Methoxybenzoyl)Oxy)Imino]−3‐[(S)−2‐Oxopyrrolidin‐3‐yl]Propan‐2‐yl]Pyrrolidine‐2‐Carboxamide]: the “metabolic stability toward liver microsomes (in words)” value in data set [1] was “readily degraded”. The “fold higher reactivity than the vinyl sulfone (32)” value on SARS-CoV-2 M^pro [3] (Kinact/KI of 33 vs 32) is roughly 20 fold. The kinact/KI at SARS-CoV-2 M^pro [3] is 77000 M⁻¹ s⁻¹. On WT SARS-CoV-2 Mpro, the “residual enzyme activity after jump dilution” value is on record as “very low residual enzyme activity” and the “mechanism of inhibition (reversibility)” value is listed as “irreversible”.

In the case of `CC(C)(C)[C@H](NC(=O)C(F)(F)F)C(=O)N1C[C@H](c2ccccc2)C[C@H]1C(=O)N[C@H](C#N)C[C@@H]1CCNC1=O` [Compound 34, (2S,4S)‐N‐[(S)−1‐Cyano‐2‐[(S)−2‐Oxopyrrolidin‐3‐yl]Ethyl]−1‐{(S)−3,3‐Dimethyl‐2‐(2,2,2‐Trifluoroacetamido)Butanoyl}−4‐Phenylpyrrolidine‐2‐Carboxamide], the “metabolic stability toward liver microsomes (in words)” value in data set [1] is “comparable stability to the initial prototype 22”. In addition, at SARS-CoV-2 M^pro [2], the pKi is 8.90 and the “Biological Activity (pKi)” value worked out at 8.9 ± 0.01.

Regarding `CC(C)(C)[C@H](NC(=O)C(F)(F)F)C(=O)N1C[C@H]2[C@@H]([C@H]1C(=O)N[C@H](C#N)C[C@@H]1CCNC1=O)C2(C)C` [nirmatrelvir], in data set [1], the “remaining parent compound after 480 min” value was “ca. 80%”.

As for `C[C@]12CC[C@H]3[C@@H](CCC4=CC(=O)CC[C@@]43C)[C@@H]1CC[C@@H]2O` [testosterone, reference compound], the “metabolic stability toward liver microsomes (in words)” value in data set [1] was “readily degraded”.
